ChEMBL document CHEMBL5113423, “Discovery and preclinical profile of sudapyridine (WX-081), a novel anti-tuberculosis agent” (Bioorg Med Chem Lett, 2022)
In brackets after ≈: the same amount, converted by molar mass.

System: Mycobacterium tuberculosis
Assay: Antimycobacterial activity against multidrug-resistant Mycobacterium tuberculosis assessed as mycobacterial growth inhibition
Format: functional

| Structure (SMILES) | MIC50 [µg/mL] | MIC90 [µg/mL] |
| --- | --- | --- |
| NNC(=O)c1ccncc1 [ISONIAZID] | 4.21 (≈ 30.7 µM) | > 40 |
| CO[C@H]1/C=C/O[C@@]2(C)Oc3c(C)c(O)c4c(O)c(c(/C=N/N5CCN(C)CC5)c(O)c4c3C2=O)NC(=O)/C(C)=C\C=C\[C@H](C)[C@H](O)[C@@H](C)[C@@H](O)[C@@H](C)[C@H](OC(C)=O)[C@@H]1C [RIFAMPIN] | > 40 | > 40 |
| COc1nc2ccc(Br)cc2cc1[C@@H](c1ccccc1)[C@@](O)(CCN(C)C)c1cccc2ccccc12 [BEDAQUILINE] | 0.032 (≈ 0.0576 µM) | 0.111 (≈ 0.2 µM) |
| NC[C@H]1O[C@H](O[C@H]2[C@H](O)[C@@H](O[C@H]3O[C@H](CO)[C@@H](O)[C@H](N)[C@H]3O)[C@H](N)C[C@@H]2N)[C@H](O)[C@@H](O)[C@@H]1O [KANAMYCIN] | 1.24 (≈ 2.55 µM) | > 40 |
| COc1nc(-c2ccc(Cl)cc2)ccc1[C@@H](c1ccccc1)[C@@](O)(CCN(C)C)c1cccc2ccccc12 | 0.111 (≈ 0.207 µM) | 0.465 (≈ 0.866 µM) |
